Measurements taken from ChEMBL document CHEMBL5620430, “Design, synthesis and biological evaluation of indazole derivatives as selective covalent inhibitors of FGFR4 in wild-type and gatekeeper mutants” (Eur J Med Chem, 2023).
Active and inactive are the calls of the source. The rule behind the calls is not given here.

What was measured:
Huh-7 [1] = experiment: Antitumor activity against human Huh-7 cells xenografted in ip dosed NSG mouse assessed as decrease in Ki-67 expression administered twice per day for 2 weeks; type: functional, organism-based; conditions: dose 20-40 mg/kg
Huh-7 [2] = experiment: Antitumor activity against human Huh-7 cells xenografted in ip dosed NSG mouse assessed as suppression of tumor growth administered twice per day for 2 weeks; type: functional, organism-based; conditions: dose 20-40 mg/kg
[3] = Toxicity in NSG mouse assessed as effect on lung at 20 to 40 mg/kg by H and E staining based analysis; type: organism-based; conditions: in vivo, dose 20-40 mg/kg
Huh-7 [4] = experiment: Induction of apoptosis in human Huh-7 cells assessed as late apoptotic cells at 1 uM measured after 48 hrs by AnnexinV-FITC/PI staining based flow cytometry (reference value: 2.55%); type: functional
[5] = Toxicity in NSG mouse assessed as effect on ALP level at 20 to 40 mg/kg […]; type: organism-based; conditions: in vivo, dose 20-40 mg/kg
[6] = Toxicity in NSG mouse assessed as effect on ALB level at 20 to 40 mg/kg […]; type: organism-based; conditions: in vivo, dose 20-40 mg/kg
HepG2 = experiment: Antiproliferative activity against human HepG2 cells measured after 24 to 48 hrs by MTT assay; type: functional, cell-based
[7] = biological target: T1, Fibroblast growth factor receptor 4 (Homo sapiens, UniProt P22455)
Target sequence in this assay (P22455 whole entry): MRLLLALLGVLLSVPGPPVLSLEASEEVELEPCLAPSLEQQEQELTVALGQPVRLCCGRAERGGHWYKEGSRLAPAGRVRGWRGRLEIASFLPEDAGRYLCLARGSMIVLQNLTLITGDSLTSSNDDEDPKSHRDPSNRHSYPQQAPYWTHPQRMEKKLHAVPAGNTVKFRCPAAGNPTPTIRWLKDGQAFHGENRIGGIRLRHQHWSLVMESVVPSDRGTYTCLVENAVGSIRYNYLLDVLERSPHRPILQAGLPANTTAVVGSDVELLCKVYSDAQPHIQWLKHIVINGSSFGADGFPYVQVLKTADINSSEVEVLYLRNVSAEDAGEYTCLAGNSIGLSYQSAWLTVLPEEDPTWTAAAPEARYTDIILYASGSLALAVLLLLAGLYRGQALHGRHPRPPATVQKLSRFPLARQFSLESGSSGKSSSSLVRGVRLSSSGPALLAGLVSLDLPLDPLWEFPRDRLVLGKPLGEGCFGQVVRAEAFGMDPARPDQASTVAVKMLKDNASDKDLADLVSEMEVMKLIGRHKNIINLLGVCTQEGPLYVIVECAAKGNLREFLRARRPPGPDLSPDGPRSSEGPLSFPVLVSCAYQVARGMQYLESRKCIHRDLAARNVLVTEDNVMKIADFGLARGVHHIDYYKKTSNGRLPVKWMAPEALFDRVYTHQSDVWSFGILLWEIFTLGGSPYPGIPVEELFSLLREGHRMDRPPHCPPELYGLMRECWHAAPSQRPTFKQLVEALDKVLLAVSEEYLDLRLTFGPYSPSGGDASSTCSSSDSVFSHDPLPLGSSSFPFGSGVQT
Description: Inhibition of FGFR4 (445 to 753 residues) (unknown origin) expressed in Escherichia coli

[8] = Toxicity in NSG mouse assessed as effect on CHO level at 20 to 40 mg/kg […]; type: organism-based; conditions: in vivo, dose 20-40 mg/kg
[9] = Oral bioavailability in Sprague-Dawley rat at 10 mg/kg by LC-MS/MS analysis; type: ADME, organism-based; conditions: in vivo
BaF3 = experiment: cells; conditions: Mus musculus
Description: Antiproliferative activity against mouse BaF3 cells harbouring ETV6-FGFR4-V550L mutant measured after 24 to 48 hrs by MTT assay

Huh-7 [10] = experiment: Antitumor activity against human Huh-7 cells xenografted in ip dosed NSG mouse assessed as decrease in tumor weight administered twice per day for 2 weeks; type: functional, organism-based; conditions: dose 20-40 mg/kg
[11] = biological target: T1, Fibroblast growth factor receptor 4; experiment: Inhibition of FGFR4 in human Huh-7 cells assessed as inhibition of MEK phosphorylation measured after 2 hrs by Western blot analysis; type: cell-based
Target sequence in this assay (P22455 22-802 limits assumed): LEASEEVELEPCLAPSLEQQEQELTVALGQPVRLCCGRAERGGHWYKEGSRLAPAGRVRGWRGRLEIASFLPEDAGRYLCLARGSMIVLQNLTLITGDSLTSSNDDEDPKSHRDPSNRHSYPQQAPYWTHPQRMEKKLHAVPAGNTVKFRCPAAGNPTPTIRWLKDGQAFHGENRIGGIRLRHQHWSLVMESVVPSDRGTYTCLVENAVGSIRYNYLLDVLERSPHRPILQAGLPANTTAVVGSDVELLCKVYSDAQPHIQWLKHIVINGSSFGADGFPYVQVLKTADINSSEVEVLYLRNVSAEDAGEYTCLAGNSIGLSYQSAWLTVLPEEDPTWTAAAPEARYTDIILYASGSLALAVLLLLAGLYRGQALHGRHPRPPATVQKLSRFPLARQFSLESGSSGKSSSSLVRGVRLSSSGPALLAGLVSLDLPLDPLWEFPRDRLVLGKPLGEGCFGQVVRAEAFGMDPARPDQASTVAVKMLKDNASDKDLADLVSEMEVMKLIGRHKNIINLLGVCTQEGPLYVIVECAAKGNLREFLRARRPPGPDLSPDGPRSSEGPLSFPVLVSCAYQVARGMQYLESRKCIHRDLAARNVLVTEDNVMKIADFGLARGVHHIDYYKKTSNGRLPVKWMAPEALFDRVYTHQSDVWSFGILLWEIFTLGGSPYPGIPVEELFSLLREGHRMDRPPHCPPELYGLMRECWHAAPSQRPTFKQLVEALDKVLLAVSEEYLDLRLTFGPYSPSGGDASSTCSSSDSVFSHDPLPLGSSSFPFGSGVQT

[12] = Toxicity in NSG mouse assessed as effect on HDL-C level at 20 to 40 mg/kg […]; type: organism-based; conditions: in vivo, dose 20-40 mg/kg
[13] = biological target: Fibroblast growth factor receptor 2 (Homo sapiens, UniProt P21802)
Description: Inhibition of FGFR2 (unknown origin)

[14] = biological target: Fibroblast growth factor receptor 1 (Homo sapiens, UniProt P11362)
Description: Inhibition of FGFR1 (unknown origin)

[15] = biological target: T1, Fibroblast growth factor receptor 4; experiment: Inhibition of FGFR4 phosphorylation in human Huh-7 cells at 120 nM by Western blot analysis; type: cell-based
Target sequence in this assay (P22455 22-802 limits assumed): as above

[16] = MRT (0 to t) in Sprague-Dawley rat at 2 mg/kg, iv by LC-MS/MS analysis; type: ADME, organism-based; conditions: in vivo
[17] = Tmax in Sprague-Dawley rat at 10 mg/kg, po by LC-MS/MS analysis; type: ADME, organism-based; conditions: in vivo
[18] = biological target: T1, Fibroblast growth factor receptor 4; experiment: Inhibition of FGFR4 in human Huh-7 cells assessed as inhibition of ERK1/2 phosphorylation measured after 2 hrs by Western blot analysis; type: cell-based
Target sequence in this assay (P22455 22-802 limits assumed): as above

[19] = Toxicity in NSG mouse assessed as effect on TP level at 20 to 40 mg/kg […]; type: organism-based; conditions: in vivo, dose 20-40 mg/kg
[20] = Observed clearance in Sprague-Dawley rat at 2 mg/kg, iv by LC-MS/MS analysis; type: ADME, organism-based; conditions: in vivo
[21] = AUC (0 to t) in Sprague-Dawley rat at 2 mg/kg, iv by LC-MS/MS analysis; type: ADME, organism-based; conditions: in vivo
Huh-7 [22] = experiment: Antitumor activity against human Huh-7 cells xenografted in NSG mouse assessed as suppression of tumor growth at 20 mg/kg, ip administered twice per day for 2 weeks relative to control; type: functional
[23] = Toxicity in NSG mouse assessed as lethality at 20 to 40 mg/kg […]; type: organism-based; conditions: in vivo, dose 20-40 mg/kg
Huh-7 [24] = experiment: cells; conditions: Homo sapiens
Description: Antiproliferative activity against human Huh-7 cells measured after 24 to 48 hrs by MTT assay

[25] = Antiproliferative activity against human L02 cells measured after 24 to 48 hrs by MTT assay; type: toxicity, cell-based
[26] = Toxicity in NSG mouse assessed as effect on body weight at 20 to 40 mg/kg […]; type: organism-based; conditions: in vivo, dose 20-40 mg/kg
[27] = Tmax in Sprague-Dawley rat at 2 mg/kg, iv by LC-MS/MS analysis; type: ADME, organism-based; conditions: in vivo
[28] = Metabolic stability in liver microsomes (unknown origin) assessed as half life; type: ADME, Microsome
Huh-7 [29] = experiment: Antitumor activity against human Huh-7 cells xenografted in NSG mouse assessed as suppression of tumor growth at 40 mg/kg, ip administered twice per day for 2 weeks relative to control; type: functional
[30] = Toxicity in NSG mouse assessed as effect on LDH level at 20 to 40 mg/kg […]; type: organism-based; conditions: in vivo, dose 20-40 mg/kg
[31] = biological target: T1, Fibroblast growth factor receptor 4; experiment: Inhibition of FGFR4 in human Huh-7 cells assessed as inhibition of ERK1/2 phosphorylation at 0.5 uM by Western blot analysis; type: cell-based; conditions: time <= 24.0 hrs, TDE = time-dependent effect
Target sequence in this assay (P22455 22-802 limits assumed): as above

[32] = Cmax in Sprague-Dawley rat at 2 mg/kg, iv by LC-MS/MS analysis; type: ADME, organism-based; conditions: in vivo
[33] = Toxicity in NSG mouse assessed as effect on heart at 20 to 40 mg/kg by H and E staining based analysis; type: organism-based; conditions: in vivo, dose 20-40 mg/kg
[34] = Toxicity in NSG mouse assessed as effect on ALT level at 20 to 40 mg/kg […]; type: organism-based; conditions: in vivo, dose 20-40 mg/kg
[35] = Toxicity in NSG mouse assessed as effect on liver at 20 to 40 mg/kg by H and E staining based analysis; type: organism-based; conditions: in vivo, dose 20-40 mg/kg
[36] = Cmax in Sprague-Dawley rat at 10 mg/kg, po by LC-MS/MS analysis; type: ADME, organism-based; conditions: in vivo
[37] = Half life in Sprague-Dawley rat at 10 mg/kg, po by LC-MS/MS analysis; type: ADME, organism-based; conditions: in vivo
[38] = MRT (0 to t) in Sprague-Dawley rat at 10 mg/kg, po by LC-MS/MS analysis; type: ADME, organism-based; conditions: in vivo
[39] = biological target: Fibroblast growth factor receptor 3 (Homo sapiens, UniProt P22607)
Description: Inhibition of FGFR3 (unknown origin)

[40] = Toxicity in NSG mouse assessed as effect on UREA level at 20 to 40 mg/kg […]; type: organism-based; conditions: in vivo, dose 20-40 mg/kg
Huh-7 [41] = experiment: Inhibition of cell migration in human Huh-7 cells at 5 uM incubated for 24 hrs by wound healing assay relative to control; type: functional
[42] = biological target: T1, Fibroblast growth factor receptor 4; experiment: Inhibition of FGFR4 in human Huh-7 cells assessed as inhibition of ERK1/2 phosphorylation incubated for 2 hrs followed by compound washout and measured upto 8 hrs by Western blot analysis; type: cell-based
Target sequence in this assay (P22455 22-802 limits assumed): as above

[43] = biological target: T1, Fibroblast growth factor receptor 4; experiment: Inhibition of FGFR4 in human Huh-7 cells assessed as inhibition of MEK phosphorylation at 0.5 uM by Western blot analysis; type: cell-based; conditions: time <= 24.0 hrs, TDE = time-dependent effect
Target sequence in this assay (P22455 22-802 limits assumed): as above

[44] = Toxicity in NSG mouse assessed as effect on UA level at 20 to 40 mg/kg […]; type: organism-based; conditions: in vivo, dose 20-40 mg/kg

Chain of Fibroblast growth factor receptor 2 (P21802 whole entry): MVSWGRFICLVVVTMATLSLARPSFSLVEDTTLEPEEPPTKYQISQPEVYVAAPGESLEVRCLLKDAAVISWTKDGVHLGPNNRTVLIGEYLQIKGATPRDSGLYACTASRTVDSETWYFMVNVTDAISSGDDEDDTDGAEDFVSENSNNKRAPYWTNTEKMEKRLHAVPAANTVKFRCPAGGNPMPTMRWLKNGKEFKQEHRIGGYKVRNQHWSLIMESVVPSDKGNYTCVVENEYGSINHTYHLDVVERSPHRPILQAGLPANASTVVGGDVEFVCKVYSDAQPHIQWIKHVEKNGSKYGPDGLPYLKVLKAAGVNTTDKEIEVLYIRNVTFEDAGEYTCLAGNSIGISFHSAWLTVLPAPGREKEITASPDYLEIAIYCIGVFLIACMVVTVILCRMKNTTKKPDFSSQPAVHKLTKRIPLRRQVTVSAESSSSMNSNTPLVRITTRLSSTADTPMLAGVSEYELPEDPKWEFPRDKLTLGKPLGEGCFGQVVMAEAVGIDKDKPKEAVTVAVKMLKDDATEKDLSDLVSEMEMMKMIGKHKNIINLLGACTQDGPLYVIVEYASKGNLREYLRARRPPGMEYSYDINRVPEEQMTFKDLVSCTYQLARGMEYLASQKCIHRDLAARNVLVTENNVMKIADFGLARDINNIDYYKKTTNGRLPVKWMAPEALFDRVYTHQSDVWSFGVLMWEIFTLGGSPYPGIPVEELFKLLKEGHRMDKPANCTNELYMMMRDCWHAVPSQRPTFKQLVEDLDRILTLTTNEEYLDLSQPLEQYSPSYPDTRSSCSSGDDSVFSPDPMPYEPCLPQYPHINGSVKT
Chain of Fibroblast growth factor receptor 1 (P11362 whole entry): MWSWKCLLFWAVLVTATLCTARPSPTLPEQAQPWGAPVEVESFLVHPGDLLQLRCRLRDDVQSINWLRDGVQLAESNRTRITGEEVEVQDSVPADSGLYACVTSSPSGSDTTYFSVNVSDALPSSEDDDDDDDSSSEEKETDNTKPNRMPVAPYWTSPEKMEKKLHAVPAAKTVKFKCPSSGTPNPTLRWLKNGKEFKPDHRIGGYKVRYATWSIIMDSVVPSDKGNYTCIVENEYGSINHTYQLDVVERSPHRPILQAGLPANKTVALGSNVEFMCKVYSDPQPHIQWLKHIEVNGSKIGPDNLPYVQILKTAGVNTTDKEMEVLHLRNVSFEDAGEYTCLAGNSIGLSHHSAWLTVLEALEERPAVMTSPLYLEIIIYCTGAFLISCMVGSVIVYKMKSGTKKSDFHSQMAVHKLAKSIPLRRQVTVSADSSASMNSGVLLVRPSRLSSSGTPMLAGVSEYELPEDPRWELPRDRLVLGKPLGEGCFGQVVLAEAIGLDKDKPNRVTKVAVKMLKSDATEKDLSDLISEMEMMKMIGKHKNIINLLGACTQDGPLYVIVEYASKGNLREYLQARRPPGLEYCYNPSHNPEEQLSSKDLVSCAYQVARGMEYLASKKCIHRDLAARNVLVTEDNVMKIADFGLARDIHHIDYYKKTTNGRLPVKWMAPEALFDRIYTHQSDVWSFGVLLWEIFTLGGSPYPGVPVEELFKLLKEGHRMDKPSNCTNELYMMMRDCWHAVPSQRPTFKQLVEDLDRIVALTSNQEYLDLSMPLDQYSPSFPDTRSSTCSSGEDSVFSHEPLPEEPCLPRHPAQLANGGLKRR
Chain of Fibroblast growth factor receptor 3 (P22607 whole entry): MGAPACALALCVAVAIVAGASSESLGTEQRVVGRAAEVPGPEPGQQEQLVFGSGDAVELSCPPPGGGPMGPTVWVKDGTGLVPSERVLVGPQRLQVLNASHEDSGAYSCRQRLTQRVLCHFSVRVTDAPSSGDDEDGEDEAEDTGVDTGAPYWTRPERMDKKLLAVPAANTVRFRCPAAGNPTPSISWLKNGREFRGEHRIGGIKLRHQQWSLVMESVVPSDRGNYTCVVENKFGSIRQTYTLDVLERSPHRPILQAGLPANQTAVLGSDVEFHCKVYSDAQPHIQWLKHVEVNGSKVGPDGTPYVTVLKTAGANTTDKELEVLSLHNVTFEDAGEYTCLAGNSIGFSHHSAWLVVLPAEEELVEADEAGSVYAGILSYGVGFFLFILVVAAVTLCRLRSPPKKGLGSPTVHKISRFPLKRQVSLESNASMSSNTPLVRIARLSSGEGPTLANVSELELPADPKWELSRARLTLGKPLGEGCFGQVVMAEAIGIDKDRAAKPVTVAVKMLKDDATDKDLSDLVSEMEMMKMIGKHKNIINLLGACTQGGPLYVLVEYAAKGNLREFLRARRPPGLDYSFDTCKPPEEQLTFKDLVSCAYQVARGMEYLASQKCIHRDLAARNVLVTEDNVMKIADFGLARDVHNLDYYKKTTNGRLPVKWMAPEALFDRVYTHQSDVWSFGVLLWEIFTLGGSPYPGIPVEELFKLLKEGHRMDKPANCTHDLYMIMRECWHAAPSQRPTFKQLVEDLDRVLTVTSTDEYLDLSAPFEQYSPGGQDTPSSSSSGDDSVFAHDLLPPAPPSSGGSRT

C=CC(=O)Nc1cc2c(cc1-c1n[nH]c3ccc(O[C@H](C)c4c(Cl)cncc4Cl)cc13)CCN(C)C2
Activity (Huh-7 [1]): Dose-Dependent Effect | Activity (Huh-7 [2]): Dose-Dependent Effect | Activity [3]: Non-Toxic | Activity (Huh-7 [4]): 7.46% | Activity [5]: Non-Toxic | Activity [6]: Non-Toxic | IC50 (HepG2): > 5 µM | IC50 [7]: 0.0024 µM | Activity [8]: Non-Toxic | bioavailability [9]: 1.36% | IC50 (BaF3): 0.002 µM | Activity (Huh-7 [10]): Dose-Dependent Effect | inhibition [11]: Dose-Dependent Effect | Activity [12]: Non-Toxic | IC50 [13]: > 3000 µM | IC50 [14]: > 3 µM | inhibition [15]: Active | MRT last [16]: 1.55 h | Tmax [17]: 1.67 h | inhibition [18]: Dose-Dependent Effect | Activity [19]: Non-Toxic | clearance [20]: 174 mL/min/kg | AUC(0-t) [21]: 192 ng·h/mL | Activity (Huh-7 [22]): 60.2% | Activity [23]: Non-Toxic | IC50 (Huh-7 [24]): 0.021 µM | IC50 [25]: > 10 µM | Activity [26]: Non-Toxic | Tmax [27]: 4.8 min | half-life [28]: 8.99 min | Activity (Huh-7 [29]): 83% | Activity [30]: Non-Toxic | inhibition [31]: Tde | Cmax [32]: 214 ng/mL | Activity [33]: Non-Toxic | Activity [34]: Non-Toxic | Activity [35]: Non-Toxic | Cmax [36]: 4.91 ng/mL | half-life [37]: 2.59 h | MRT last [38]: 3.04 h | IC50 [39]: > 3000 µM | Activity [40]: Non-Toxic | inhibition at 5 µM (Huh-7 [41]): 90% | inhibition [42]: Active | inhibition [43]: Tde | Activity [44]: Non-Toxic
